Results from ChEMBL document CHEMBL1145387, “Carbonic anhydrase activators: activation of the human isoforms VII (cytosolic) and XIV (transmembrane) with amino acids and amines” (Bioorg Med Chem Lett, 2007).

What was measured:
[1] = molecular target: Carbonic anhydrase 14 (Homo sapiens) (UniProt Q9ULX7); test: Activation of human recombinant CA14 by CO2 hydrase assay
[2] = molecular target: Carbonic anhydrase 7 (Homo sapiens) (UniProt P43166); test: Activation of human recombinant CA7 by CO2 hydrase assay
Chain of Carbonic anhydrase 7 (Homo sapiens) (P43166 whole entry): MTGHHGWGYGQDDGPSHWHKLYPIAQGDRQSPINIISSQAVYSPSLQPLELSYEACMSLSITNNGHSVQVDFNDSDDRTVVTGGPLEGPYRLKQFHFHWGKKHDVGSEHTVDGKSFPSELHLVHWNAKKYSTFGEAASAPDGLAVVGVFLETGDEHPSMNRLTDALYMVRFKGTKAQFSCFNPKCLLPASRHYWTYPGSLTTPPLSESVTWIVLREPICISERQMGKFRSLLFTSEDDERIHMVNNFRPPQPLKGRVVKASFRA

[3] = molecular target: Carbonic anhydrase 1 (Homo sapiens) (UniProt P00915); test: Activation of human recombinant CA1 by CO2 hydrase assay
Chain of Carbonic anhydrase 1 (Homo sapiens) (P00915 2-261 limits assumed): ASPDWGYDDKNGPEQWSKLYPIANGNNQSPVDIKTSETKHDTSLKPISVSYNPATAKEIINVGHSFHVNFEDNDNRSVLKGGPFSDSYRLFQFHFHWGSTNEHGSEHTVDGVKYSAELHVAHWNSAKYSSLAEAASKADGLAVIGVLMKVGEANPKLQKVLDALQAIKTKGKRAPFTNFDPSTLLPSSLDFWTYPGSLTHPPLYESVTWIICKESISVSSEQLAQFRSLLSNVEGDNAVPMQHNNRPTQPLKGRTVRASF

[4] = molecular target: Carbonic anhydrase 2 (Homo sapiens) (UniProt P00918); test: Activation of human recombinant CA2 by CO2 hydrase assay

Chain of Carbonic anhydrase 14 (Homo sapiens) (Q9ULX7 whole entry): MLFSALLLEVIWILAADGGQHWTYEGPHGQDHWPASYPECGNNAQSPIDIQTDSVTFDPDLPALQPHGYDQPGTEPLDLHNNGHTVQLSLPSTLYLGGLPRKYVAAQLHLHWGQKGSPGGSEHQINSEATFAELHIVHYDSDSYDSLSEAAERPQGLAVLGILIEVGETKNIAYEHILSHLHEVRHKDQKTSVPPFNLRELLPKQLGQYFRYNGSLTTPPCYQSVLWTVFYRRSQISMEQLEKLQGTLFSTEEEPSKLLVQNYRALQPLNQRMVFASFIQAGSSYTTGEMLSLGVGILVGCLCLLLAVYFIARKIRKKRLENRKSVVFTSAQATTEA

| SMILES | KA [1] [µM] | KA [2] [µM] | KA [3] [µM] | KA [4] [µM] |
| --- | --- | --- | --- | --- |
| N[C@@H](Cc1c[nH]c2ccccc12)C(=O)O | 16.5 | 57.5 |  |  |
| NCCc1c[nH]c2ccc(O)cc12 | 6.5 | 0.93 |  |  |
| NCCc1c[nH]cn1 | 0.01 | 37.5 |  |  |
| NCCN1CCOCC1 | 5.4 | 64.3 |  |  |
| NCCc1ccccn1 | 6.9 | 27.8 |  |  |
| CNC[C@@H](O)c1ccc(O)c(O)c1 | 36.1 | 60 | 0.09 | 96 |
| N[C@@H](Cc1ccc(O)cc1)C(=O)O | 21.8 | 20.3 | 0.02 | 0.011 |
| NCCN1CCNCC1 | 18.3 | 32.5 |  |  |
| NCCc1ccc(O)c(O)c1 | 14.6 | 0.89 |  |  |
| N[C@@H](Cc1c[nH]cn1)C(=O)O | 0.9 | 0.92 |  |  |
| N[C@H](Cc1ccc(O)c(O)c1)C(=O)O | 36.8 | 58.3 |  |  |
| N[C@@H](Cc1ccc(O)c(O)c1)C(=O)O | 12.1 | 58.3 |  |  |
| N[C@H](Cc1c[nH]c2ccccc12)C(=O)O | 18 | 39.6 |  |  |
| Nc1ccc(C[C@H](N)C(=O)O)cc1 | 18 | 39.6 | 0.24 | 0.15 |
| NCc1ccccn1 | 21.7 | 43.7 |  |  |
| N[C@H](Cc1c[nH]cn1)C(=O)O | 2.37 | 0.71 |  |  |
